Source: ChEMBL document CHEMBL1201862, “PubChem BioAssay data set” (2004)
Active and inactive are the calls of the source.

Assays:
[1] = biological target: Induced myeloid leukemia cell differentiation protein Mcl-1 (Homo sapiens, UniProt Q07820); type: functional
[2] = biological target: T1, Calpain-2 catalytic subunit (Sus scrofa, UniProt P43367); assay: pig calpain II inhibitor potency, dose response, biochemical, fluorogenic peptide substrate (AID 1420); type: functional
T1 sequence (P43367 whole entry): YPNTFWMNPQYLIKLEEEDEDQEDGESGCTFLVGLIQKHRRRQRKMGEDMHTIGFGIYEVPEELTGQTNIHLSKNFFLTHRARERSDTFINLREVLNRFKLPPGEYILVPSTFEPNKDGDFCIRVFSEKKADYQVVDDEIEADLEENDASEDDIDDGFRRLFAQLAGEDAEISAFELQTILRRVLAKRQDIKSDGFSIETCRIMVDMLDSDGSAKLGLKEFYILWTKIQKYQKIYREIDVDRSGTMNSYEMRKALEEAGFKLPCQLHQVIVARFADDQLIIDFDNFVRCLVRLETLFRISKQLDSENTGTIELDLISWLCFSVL

Cytochrome P450 2C19 = Cytochrome P450 2C19 (Homo sapiens, UniProt P33261); assay: Cytochrome panel assay with activity outcomes. Panel member name: p450-cyp2c19 Compounds with AC50 equal or less than 10 uM are considered active; type: functional; details: read-out: AC50
Caspase-6 = biological target: T2, Caspase-6 (Homo sapiens, UniProt P55212); assay: human caspase-6 inhibitors, dose response, biochemical, VEID-R110 fluorescence, cherry-pick (AID 720632)
T2 sequence (P55212 whole entry): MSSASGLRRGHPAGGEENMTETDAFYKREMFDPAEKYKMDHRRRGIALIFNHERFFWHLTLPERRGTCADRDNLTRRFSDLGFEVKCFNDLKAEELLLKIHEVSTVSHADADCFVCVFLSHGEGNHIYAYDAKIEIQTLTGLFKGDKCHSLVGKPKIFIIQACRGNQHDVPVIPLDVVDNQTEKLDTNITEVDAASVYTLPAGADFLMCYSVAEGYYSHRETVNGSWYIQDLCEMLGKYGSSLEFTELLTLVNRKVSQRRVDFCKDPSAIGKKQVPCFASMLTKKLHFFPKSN

[3] = biological target: FAD-linked sulfhydryl oxidase ALR (Homo sapiens, UniProt P55789); assay: inhibitors of human ALR sulfhydryl oxidase, dose response, biochemical, H2O2 detection, luminescence, cherry-pick (AID 493248)
[4] = control 3'UTR Renilla luciferase suppression, dose response, counter-screen for Shn3 inhibitor project, cell-based, Clone20-Shn3RL, cherry-picked (AID 624133); type: functional
[5] = A549 cell cytotoxicity, dose response, cytotoxicity control, plate reader, cherry-pick, antagonist series (AID 743412); type: functional, cell-based
[6] = HepG2 cell cytotoxicity, dose response, cytotoxicity control for Shn3 inhibitor project, CellTiter-Glo, cherry-picked (AID 624134); type: functional, cell-based
[7] = Shn3 3'UTR reporter inhibitors, dose response, cell-based, Clone20 osteoblasts, firefly luciferase, cherry-picked (AID 624132); type: functional;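 further: firefly luciferase luminescence from reporter carrying the Shn3 3'UTR in osteoblasts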
[8] = HepG2 cell cytotoxicity, dose response, cytotoxicity control, plate reader, cherry-pick, antagonist series (AID 743416); type: functional, cell-based
[9] = MC4R antagonists, dose response, counter-screen for LGR2 antagonist project, cell-based, plate reader, cherry pick (AID 743444); type: functional;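 further: transfected HEK 293 cells stimulated with alpha-MSH peptide; potency of inhibitors of the alpha-MSH evoked signal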
[10] = LGR2 antagonists, dose response, cell-based, HEK293, CRE-luciferase reporter, cherry pick, set 2 (AID 743343); type: functional;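 further: transfected cells were stimulated with diluted bursicon conditioned medium after compound addition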
[11] = HEK293 cell cytotoxicity, dose response, cytotoxicity control, plate reader, cherry-picked samples (AID 743446); type: functional, cell-based
BJ [12] = assay: cytotoxicity toward BJ-TERT-LT-ST fibroblasts, dose response, cell-based, RAS-independent, luminescence (AID 1935); type: functional; details: Homo sapiens;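 further: BJ fibroblasts immortalized with TERT plus LT and ST oncogenes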
[13] = cytotoxicity toward DRD oncogenic fibroblasts, dose response, cell-based, non-viral oncogenic, luminescence (AID 1934); type: functional; details: Homo sapiens
BJ [14] = assay: cytotoxicity toward BJ-TERT fibroblasts, dose response, cell-based, RAS-independent, luminescence (AID 1933); type: functional; details: Homo sapiens
BJ [15] = assay: cells; type: functional, cell-based; details: Homo sapiens

Chain of Induced myeloid leukemia cell differentiation protein Mcl-1 (Q07820 whole entry): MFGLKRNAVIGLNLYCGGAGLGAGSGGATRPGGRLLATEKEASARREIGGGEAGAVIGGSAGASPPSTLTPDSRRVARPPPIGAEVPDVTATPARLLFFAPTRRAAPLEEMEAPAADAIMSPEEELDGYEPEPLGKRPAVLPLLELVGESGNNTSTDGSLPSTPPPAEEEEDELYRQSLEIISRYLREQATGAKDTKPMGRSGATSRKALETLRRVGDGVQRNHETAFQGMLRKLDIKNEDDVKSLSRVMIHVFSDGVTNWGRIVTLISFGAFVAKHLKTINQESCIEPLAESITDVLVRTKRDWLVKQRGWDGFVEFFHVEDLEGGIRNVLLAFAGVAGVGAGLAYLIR
Chain of FAD-linked sulfhydryl oxidase ALR (P55789 whole entry): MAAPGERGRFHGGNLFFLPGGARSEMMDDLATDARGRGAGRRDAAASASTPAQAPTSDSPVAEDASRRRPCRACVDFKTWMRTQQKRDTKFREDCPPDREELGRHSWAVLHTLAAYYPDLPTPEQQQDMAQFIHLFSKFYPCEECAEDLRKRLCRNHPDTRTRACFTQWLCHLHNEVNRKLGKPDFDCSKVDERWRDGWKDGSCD
Chain of Cytochrome P450 2C19 (P33261 whole entry): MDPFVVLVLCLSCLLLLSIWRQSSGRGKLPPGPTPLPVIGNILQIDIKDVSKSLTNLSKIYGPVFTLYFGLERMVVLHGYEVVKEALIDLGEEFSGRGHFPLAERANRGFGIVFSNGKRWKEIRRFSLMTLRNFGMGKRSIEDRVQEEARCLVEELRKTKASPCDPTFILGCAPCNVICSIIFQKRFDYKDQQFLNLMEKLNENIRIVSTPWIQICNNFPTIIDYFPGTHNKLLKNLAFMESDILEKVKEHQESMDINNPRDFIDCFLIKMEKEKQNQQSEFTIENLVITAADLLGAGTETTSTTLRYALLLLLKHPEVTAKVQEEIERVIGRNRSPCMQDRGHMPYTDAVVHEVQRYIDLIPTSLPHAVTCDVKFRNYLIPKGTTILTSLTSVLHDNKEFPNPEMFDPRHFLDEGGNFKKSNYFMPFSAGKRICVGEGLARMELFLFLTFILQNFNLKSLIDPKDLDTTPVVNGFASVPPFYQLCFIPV

With `OC1=C2C(=Nc3ccc4ncccc4c3C2c2ccc(O)c(O)c2)CCC1` (stereo not drawn) as the molecule, how does the IC50 [1] read?
The IC50 was 4.38 µM (active).

Which IC50 [2] does the source give for `Cc1ccccc1NC(=S)NCCC(c1ccccc1)c1ccccc1` here?
Its IC50 is 2.48 µM (not active).

For `COc1ccc(C(=O)Nc2cccc(-c3cc4ccccc4oc3=O)c2)cc1[N+](=O)[O-]`, which IC50 [2] is on record?
The IC50 was 12.3 µM (not active).

With `Cc1ccc(NC(S)=NC(C)CCc2ccccc2)cc1C` (stereo not drawn) as the molecule, how does the IC50 [2] read?
The IC50 was 17.3 µM (not active).

For `Oc1ccccc1C1Nc2cccc3cccc(c23)N1`, which AC50 (Cytochrome P450 2C19) is on record?
The AC50 was 3.16 µM (inconclusive).

And the IC50 [1]?
Its IC50 is 3.25 µM (active).

For `O=C(COC(=O)Cc1ccccc1)Nc1cc(S(=O)(=O)N2CCCCC2)ccc1Cl`, which AC50 (Caspase-6) is on record?
The AC50 was 38.3 µM (active).

Which AC50 (Caspase-6) does the source give for `COc1cc(/C=C2\SC(=S)N(CC(=O)O)C2=O)ccc1OS(=O)(=O)c1ccc(C)cc1` here?
Its AC50 is 46.2 µM (active).

What about the AC50 [3] of the same molecule?
The AC50 was 2.07 µM (active).

For `Nc1cc2cccnc2cc1Cl`, which AC50 (Caspase-6) is on record?
Its AC50 is 25.6 µM (active).

With `Cc1cccc(C)c1-n1nnnc1C(c1cc2ccccc2o1)N1CCC(n2c(O)nc3ccccc32)CC1` (stereo not drawn) as the molecule, how does the AC50 [4] read?
The AC50 was 4.09 µM (active).

What about the AC50 [5] of the same molecule?
The AC50 was 6.22 µM (active).

What about the AC50 [6] of the same molecule?
The AC50 was 2.97 µM (active).

And the AC50 [7]?
Its AC50 is 3.05 µM (active).

What about the AC50 [8] of the same molecule?
Its AC50 is 1.98 µM (active).

What about the AC50 [9] of the same molecule?
Its AC50 is 3.33 µM (active).

And the AC50 [10]?
Its AC50 is 3.43 µM (active).

What about the AC50 [11] of the same molecule?
The AC50 was 4.96 µM (active).

For `COc1ccc(/C=N/Nc2nncc3ccccc23)cc1`, which EC50 (BJ [12]) is on record?
Its EC50 is 18.6 µM (active).

What about the EC50 [13] of the same molecule?
Its EC50 is 7.41 µM (active).

And the EC50 (BJ [14])?
The EC50 was 8.72 µM (active).

And the EC50 (BJ [15])?
Its EC50 is 9.05 µM (active).

For `C/C(=N\OCC(=O)NC12CC3CC(CC(C3)C1)C2)c1cc2ccccc2o1`, which IC50 [2] is on record?
The IC50 was 8.83 µM (not active).
